Measurements as given in US5869449A, “38-decarboxy-38-hydroxymethyl derivatives of teiocoplanin antibiotics and a process for preparing them” (Gruppo Lepetit S.P.A., priority 1990, dated 1999).

Assay: Acid-base titration (pK MCS)
Type: physicochemical
Conditions: methyl cellosolve (MCS) H2O 4/1, excess 0.01M HCl, titrated with 0.01N NaOH; one basic ionizable function

Row | Substance | pKMCS
1 | 38-Decarboxy-38-hydroxymethyl of teicoplanin pseudoaglycon 1 [Example 2] | 6.9
2 | 38-Decarboxy-38-hydroxymethyl of teicoplanin pseudoaglycon 2 [Example 3] | 6.8
